From US6638973B2, “Taxane formulations” (FSU Research Foundation, Inc., priority 2000, dated 2003)

Tested on: HCT116 cells
Assay: In vitro cytotoxicity measured by the cell colony formation assay
Format: cell-based
Settings: HCT116 colony formation; 72 h drug incubation, colonies counted after 7 days; Example 10, C-10 ester/C-7 hydroxy taxanes; read-out: IN VITRO ID 50 (nm) HCT116
Protocol: (§1) Four hundred cells (HCT116) were plated in 60 mm Petri dishes containing 2.7 mL of medium (modified McCoy's 5a medium containing 10% fetal bovine serum and 100 units/mL penicillin and 100 µg/mL streptomycin). The cells were incubated in a CO2 incubator at 37° C. for 5 h for attachment to the bottom of Petri dishes. The compounds identified in Example 2 were made up fresh in medium at ten times the final concentration, and then 0.3 mL of this stock solution was added to the 2.7 mL of medium in the dish. The cells were then incubated with drugs for 72 h at 37° C. At the end of incubation the drug-containing media were decanted, the dishes were rinsed with 4 mL of Hank's Balance Salt Solution (HBSS), 5 mL of fresh medium was added, and the dishes were returned to the incubator for colony formation. The cell colonies were counted using a colony counter after incubation for 7 days.
as §1, with “Example 7” for “Example 2”
as §1, with “Example 22” for “Example 2”
as §1, with “Example 27” for “Example 2”
Four hundred cells (HCT116) were plated in 60 mm Petri dishes containing 2.7 mL of medium (modified McCoy's 5a medium containing 10% fetal bovine serum and 100 units/mL penicillin and 100 µg/mL streptomycin). The cells were incubated in a CO2 incubator at 37° C. for 5 h for attachment to the bottom of Petri dishes. […]

`CC(=O)O[C@@]12CO[C@@H]1C[C@H](O)[C@@]1(C)C(=O)[C@H](OC(=O)C3CC3)C3=C(C)[C@@H](OC(=O)[C@H](O)[C@@H](NC(=O)OC(C)(C)C)c4ccco4)C[C@@](O)([C@@H](OC(=O)c4ccccc4)C12)C3(C)C` (some centres unmarked) [Compound 0843] and `CC(=O)O[C@@]12CO[C@@H]1C[C@H](O)[C@@]1(C)C(=O)[C@H](OC(=O)C3CC3)C3=C(C)[C@@H](OC(=O)[C@H](O)[C@@H](NC(=O)OC(C)(C)C)c4cccs4)C[C@@](O)([C@@H](OC(=O)c4ccccc4)C12)C3(C)C` (some centres unmarked) [Compound 0854] cannot be ordered by IC50: < 1 nM for the first, < 1 nM for the second.

`CC(=O)O[C@@]12CO[C@@H]1C[C@H](O)[C@@]1(C)C(=O)[C@H](OC(=O)C3CC3)C3=C(C)[C@@H](OC(=O)[C@H](O)[C@@H](NC(=O)OC(C)(C)C)C4CC4)C[C@@](O)([C@@H](OC(=O)c4ccccc4)C12)C3(C)C` (some centres unmarked) [Compound 0860] and `CC(=O)O[C@@]12CO[C@@H]1C[C@H](O)[C@@]1(C)C(=O)[C@H](OC(=O)C3CC3)C3=C(C)[C@@H](OC(=O)[C@H](O)[C@@H](NC(=O)OC(C)(C)C)c4ccccc4)C[C@@](O)([C@@H](OC(=O)c4ccccc4)C12)C3(C)C` (some centres unmarked) [Compound 0882] cannot be ordered by IC50: < 1 nM for the first, < 1 nM for the second.

`CC(=O)O[C@@]12CO[C@@H]1C[C@H](O)[C@@]1(C)C(=O)[C@H](OC(=O)C3CC3)C3=C(C)[C@@H](OC(=O)[C@H](O)[C@@H](NC(=O)OC(C)(C)C)c4ccc([N+](=O)[O-])cc4)C[C@@](O)([C@@H](OC(=O)c4ccccc4)C12)C3(C)C` (some centres unmarked) [Compound 0879] and `CCCC(=O)O[C@H]1C(=O)[C@@]2(C)C([C@H](OC(=O)c3ccccc3)[C@]3(O)C[C@H](OC(=O)[C@H](O)[C@@H](NC(=O)OC(C)(C)C)c4ccncc4)C(C)=C1C3(C)C)[C@]1(OC(C)=O)CO[C@@H]1C[C@@H]2O` (some centres unmarked) [Compound 0978] cannot be ordered by IC50: < 1 nM for the first, < 1 nM for the second.

`CC(=O)O[C@@]12CO[C@@H]1C[C@H](O)[C@@]1(C)C(=O)[C@H](OC(=O)C3CC3)C3=C(C)[C@@H](OC(=O)[C@H](O)[C@H](C=C(C)C)NC(=O)c4ccccc4)C[C@@](O)([C@@H](OC(=O)c4ccccc4)C12)C3(C)C` (some centres unmarked) [Compound 0890] and `CC(=O)O[C@@]12CO[C@@H]1C[C@H](O)[C@@]1(C)C(=O)[C@H](OC(=O)C3CC3)C3=C(C)[C@@H](OC(=O)[C@H](O)[C@@H](NC(=O)c4ccccc4)C4CC4)C[C@@](O)([C@@H](OC(=O)c4ccccc4)C12)C3(C)C` (some centres unmarked) [Compound 0923] cannot be ordered by IC50: < 1 nM for the first, < 1 nM for the second.

`CC(=O)O[C@@]12CO[C@@H]1C[C@H](O)[C@@]1(C)C(=O)[C@H](OC(=O)C3CC3)C3=C(C)[C@@H](OC(=O)[C@H](O)[C@@H](NC(=O)c4ccccc4)c4ccco4)C[C@@](O)([C@@H](OC(=O)c4ccccc4)C12)C3(C)C` (some centres unmarked) [Compound 0908] and `CC(=O)O[C@@]12CO[C@@H]1C[C@H](O)[C@@]1(C)C(=O)[C@H](OC(=O)C3CC3)C3=C(C)[C@@H](OC(=O)[C@H](O)[C@@H](NC(=O)c4ccccc4)c4cccs4)C[C@@](O)([C@@H](OC(=O)c4ccccc4)C12)C3(C)C` (some centres unmarked) [Compound 0919] cannot be ordered by IC50: < 1 nM for the first, < 1 nM for the second.

`CC(=O)O[C@@]12CO[C@@H]1C[C@H](O)[C@@]1(C)C(=O)[C@H](OC(=O)C3CC3)C3=C(C)[C@@H](OC(=O)[C@H](O)[C@@H](NC(=O)c4ccccc4)c4ccccc4)C[C@@](O)([C@@H](OC(=O)c4ccccc4)C12)C3(C)C` (some centres unmarked) [Compound 0937] and `CCCC(=O)O[C@H]1C(=O)[C@@]2(C)C([C@H](OC(=O)c3ccccc3)[C@]3(O)C[C@H](OC(=O)[C@H](O)[C@@H](NC(=O)OC(C)(C)C)c4cccnc4)C(C)=C1C3(C)C)[C@]1(OC(C)=O)CO[C@@H]1C[C@@H]2O` (some centres unmarked) [Compound 0966] cannot be ordered by IC50: < 10 nM for the first, < 10 nM for the second.

`CCCC(=O)O[C@H]1C(=O)[C@@]2(C)C([C@H](OC(=O)c3ccccc3)[C@]3(O)C[C@H](OC(=O)[C@H](O)[C@H](C=C(C)C)NC(=O)OC(C)(C)C)C(C)=C1C3(C)C)[C@]1(OC(C)=O)CO[C@@H]1C[C@@H]2O` (some centres unmarked) [Compound 0947] and `CCCC(=O)O[C@H]1C(=O)[C@@]2(C)C([C@H](OC(=O)c3ccccc3)[C@]3(O)C[C@H](OC(=O)[C@H](O)[C@@H](NC(=O)OC(C)(C)C)c4ccccn4)C(C)=C1C3(C)C)[C@]1(OC(C)=O)CO[C@@H]1C[C@@H]2O` (some centres unmarked) [Compound 0951] cannot be ordered by IC50: < 1 nM for the first, < 1 nM for the second.
